Here are results for 13 molecules from patent publication US9186360B2, “Treatment of respiratory disorders using TRPA1 antagonists” (GLENMARK PHARMACEUTICALS S.A., priority 2011, dated 2015).

Format in all cases: cell-based
One assay deals with human TRPA1 (Homo sapiens (Human), UniProt O75762). Put plainly: 45Calcium uptake assay, AITC induced, human TRPA1 expressing CHO cells. The note with it: AITC 30 micromolar, read-out: IC50 values hTRPA1. An outline of the steps:
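CHO cells expressing human TRPA1 preincubated 10 min with compound (0.5% DMSO), then 30 µM AITC plus 5 µCi/ml 45Ca2+ for 3 min at 25 °C. Lysate radioactivity counted by scintillation. IC50 by nonlinear regression of % maximal uptake without antagonist.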

The target of the next assay is human TRPV1 (Homo sapiens (Human), UniProt Q8NER1). The assay can be described thus: Radiometric calcium selectivity assay, CHO cells expressing human TRPV1 (capsaicin). The note with it: read-out: IC50 values hTRPV1.
Another assay has as its target human TRPV3 (Homo sapiens (Human), UniProt Q8NET8). The assay can be described thus: Radiometric calcium selectivity assay, CHO cells expressing human TRPV3 (2-aminoethoxydiphenyl borate). The settings on record: read-out: IC50 values hTRPV3.
In the next assay the target is human TRPV4 (Homo sapiens (Human), UniProt Q9HBA0). Put plainly: Radiometric calcium selectivity assay, CHO cells expressing human TRPV4 (4α-phorbol 12,13-didecanoate). The note with it: read-out: IC50 values hTRPV4.
Another assay addresses human TRPM8 (Homo sapiens (Human), UniProt Q7Z2W7). Put plainly: Radiometric calcium selectivity assay, CHO cells expressing human TRPM8 (icilin). The settings on record: read-out: IC50 values hTRPM8.

Chain of human TRPV1 (Q8NER1 whole entry): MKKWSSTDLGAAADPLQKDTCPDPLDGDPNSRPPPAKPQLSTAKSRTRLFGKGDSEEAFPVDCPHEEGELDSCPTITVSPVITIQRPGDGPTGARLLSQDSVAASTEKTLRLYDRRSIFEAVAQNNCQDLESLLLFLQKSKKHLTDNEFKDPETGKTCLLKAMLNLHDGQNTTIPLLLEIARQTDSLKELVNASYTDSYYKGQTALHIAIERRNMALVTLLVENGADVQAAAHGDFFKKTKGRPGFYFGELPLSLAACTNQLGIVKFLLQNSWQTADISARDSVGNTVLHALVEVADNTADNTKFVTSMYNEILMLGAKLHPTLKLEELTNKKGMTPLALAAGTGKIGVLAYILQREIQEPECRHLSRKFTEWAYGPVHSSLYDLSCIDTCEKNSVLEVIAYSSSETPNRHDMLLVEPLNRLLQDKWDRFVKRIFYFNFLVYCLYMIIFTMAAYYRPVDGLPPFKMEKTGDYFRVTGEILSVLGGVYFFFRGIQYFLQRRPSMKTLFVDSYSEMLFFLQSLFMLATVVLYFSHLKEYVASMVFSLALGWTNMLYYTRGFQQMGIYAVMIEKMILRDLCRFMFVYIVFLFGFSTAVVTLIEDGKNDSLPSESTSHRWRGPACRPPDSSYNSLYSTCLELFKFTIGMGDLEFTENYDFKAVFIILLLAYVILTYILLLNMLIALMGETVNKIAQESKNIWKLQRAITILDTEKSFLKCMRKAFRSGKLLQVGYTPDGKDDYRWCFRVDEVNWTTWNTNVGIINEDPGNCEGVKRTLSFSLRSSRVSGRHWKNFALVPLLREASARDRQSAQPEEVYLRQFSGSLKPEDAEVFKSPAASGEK
Chain of human TRPM8 (Q7Z2W7 whole entry): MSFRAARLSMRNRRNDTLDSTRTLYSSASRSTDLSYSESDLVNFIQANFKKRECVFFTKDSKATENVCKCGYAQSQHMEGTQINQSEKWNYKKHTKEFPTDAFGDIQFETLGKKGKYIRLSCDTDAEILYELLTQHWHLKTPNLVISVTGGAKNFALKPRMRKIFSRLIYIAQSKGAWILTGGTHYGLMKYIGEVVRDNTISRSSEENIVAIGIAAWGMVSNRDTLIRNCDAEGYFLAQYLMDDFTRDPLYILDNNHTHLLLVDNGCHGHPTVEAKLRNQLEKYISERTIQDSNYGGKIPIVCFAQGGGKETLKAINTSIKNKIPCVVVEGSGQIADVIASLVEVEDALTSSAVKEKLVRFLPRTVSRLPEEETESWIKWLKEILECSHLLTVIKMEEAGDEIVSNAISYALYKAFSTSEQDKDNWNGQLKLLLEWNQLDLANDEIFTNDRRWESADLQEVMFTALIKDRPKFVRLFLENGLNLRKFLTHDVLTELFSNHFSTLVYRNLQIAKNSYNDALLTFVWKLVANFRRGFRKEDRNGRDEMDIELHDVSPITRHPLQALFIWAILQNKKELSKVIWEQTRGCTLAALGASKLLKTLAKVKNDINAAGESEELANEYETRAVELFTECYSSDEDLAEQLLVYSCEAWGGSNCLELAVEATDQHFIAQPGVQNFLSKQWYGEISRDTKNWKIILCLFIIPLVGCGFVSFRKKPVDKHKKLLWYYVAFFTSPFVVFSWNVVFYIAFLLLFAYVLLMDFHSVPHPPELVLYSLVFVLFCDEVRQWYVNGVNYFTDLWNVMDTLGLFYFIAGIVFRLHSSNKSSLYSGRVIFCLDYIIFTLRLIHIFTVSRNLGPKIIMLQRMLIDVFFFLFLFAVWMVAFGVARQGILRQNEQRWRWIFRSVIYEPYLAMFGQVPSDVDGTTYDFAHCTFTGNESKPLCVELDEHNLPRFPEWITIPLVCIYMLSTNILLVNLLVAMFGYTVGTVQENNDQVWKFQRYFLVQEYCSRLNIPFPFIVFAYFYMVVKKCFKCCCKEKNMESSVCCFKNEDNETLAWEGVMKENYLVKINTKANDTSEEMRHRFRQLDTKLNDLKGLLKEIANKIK
Chain of human TRPV3 (Q8NET8 whole entry): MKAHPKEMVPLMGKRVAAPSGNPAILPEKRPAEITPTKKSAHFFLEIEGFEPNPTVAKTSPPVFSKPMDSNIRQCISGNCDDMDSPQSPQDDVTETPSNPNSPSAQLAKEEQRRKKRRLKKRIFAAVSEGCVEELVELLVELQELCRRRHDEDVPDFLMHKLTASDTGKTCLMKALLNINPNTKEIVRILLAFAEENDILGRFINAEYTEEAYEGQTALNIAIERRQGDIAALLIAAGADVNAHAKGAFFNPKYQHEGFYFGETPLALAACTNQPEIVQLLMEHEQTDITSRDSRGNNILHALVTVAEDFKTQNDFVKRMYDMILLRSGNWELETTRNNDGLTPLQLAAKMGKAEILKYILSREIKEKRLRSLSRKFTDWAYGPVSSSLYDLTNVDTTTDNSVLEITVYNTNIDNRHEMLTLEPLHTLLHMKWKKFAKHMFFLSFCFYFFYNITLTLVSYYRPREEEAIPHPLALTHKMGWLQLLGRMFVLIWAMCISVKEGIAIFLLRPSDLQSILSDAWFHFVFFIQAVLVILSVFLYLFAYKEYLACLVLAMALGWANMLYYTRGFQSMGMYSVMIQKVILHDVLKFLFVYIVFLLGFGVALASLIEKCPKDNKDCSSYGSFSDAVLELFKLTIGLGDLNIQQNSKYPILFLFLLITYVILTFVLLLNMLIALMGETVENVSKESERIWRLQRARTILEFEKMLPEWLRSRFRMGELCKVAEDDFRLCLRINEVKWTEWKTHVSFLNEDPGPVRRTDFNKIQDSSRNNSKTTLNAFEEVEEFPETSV
Chain of human TRPA1 (O75762 whole entry): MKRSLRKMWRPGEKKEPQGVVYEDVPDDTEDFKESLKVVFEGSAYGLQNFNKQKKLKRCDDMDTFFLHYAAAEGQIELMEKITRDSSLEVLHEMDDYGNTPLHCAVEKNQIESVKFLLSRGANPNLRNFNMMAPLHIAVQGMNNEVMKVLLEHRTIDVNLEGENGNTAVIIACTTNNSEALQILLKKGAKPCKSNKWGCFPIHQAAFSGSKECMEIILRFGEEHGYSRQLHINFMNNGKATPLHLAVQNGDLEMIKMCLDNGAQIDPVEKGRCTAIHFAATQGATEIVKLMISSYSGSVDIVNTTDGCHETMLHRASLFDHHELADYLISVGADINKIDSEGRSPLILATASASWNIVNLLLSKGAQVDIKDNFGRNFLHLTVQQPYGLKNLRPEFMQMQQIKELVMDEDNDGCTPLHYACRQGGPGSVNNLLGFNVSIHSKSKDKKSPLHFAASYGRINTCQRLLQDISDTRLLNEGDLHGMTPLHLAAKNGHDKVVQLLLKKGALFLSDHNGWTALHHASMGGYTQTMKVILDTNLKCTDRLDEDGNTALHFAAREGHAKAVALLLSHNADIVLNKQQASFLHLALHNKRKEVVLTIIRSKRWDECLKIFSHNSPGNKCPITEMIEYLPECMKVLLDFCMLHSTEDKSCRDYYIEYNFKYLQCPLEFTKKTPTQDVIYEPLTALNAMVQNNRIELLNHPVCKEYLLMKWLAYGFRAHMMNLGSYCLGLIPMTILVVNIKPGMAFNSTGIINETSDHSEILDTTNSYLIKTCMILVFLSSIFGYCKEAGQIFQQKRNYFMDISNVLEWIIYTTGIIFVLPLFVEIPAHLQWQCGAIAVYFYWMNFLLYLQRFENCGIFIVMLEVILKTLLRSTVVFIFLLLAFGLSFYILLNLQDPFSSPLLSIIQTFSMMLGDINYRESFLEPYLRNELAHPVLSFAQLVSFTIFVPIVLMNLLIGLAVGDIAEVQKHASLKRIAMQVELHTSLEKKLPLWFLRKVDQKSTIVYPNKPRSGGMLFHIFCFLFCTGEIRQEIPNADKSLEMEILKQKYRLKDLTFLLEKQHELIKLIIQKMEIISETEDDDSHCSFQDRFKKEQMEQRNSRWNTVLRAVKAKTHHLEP
Chain of human TRPV4 (Q9HBA0 whole entry): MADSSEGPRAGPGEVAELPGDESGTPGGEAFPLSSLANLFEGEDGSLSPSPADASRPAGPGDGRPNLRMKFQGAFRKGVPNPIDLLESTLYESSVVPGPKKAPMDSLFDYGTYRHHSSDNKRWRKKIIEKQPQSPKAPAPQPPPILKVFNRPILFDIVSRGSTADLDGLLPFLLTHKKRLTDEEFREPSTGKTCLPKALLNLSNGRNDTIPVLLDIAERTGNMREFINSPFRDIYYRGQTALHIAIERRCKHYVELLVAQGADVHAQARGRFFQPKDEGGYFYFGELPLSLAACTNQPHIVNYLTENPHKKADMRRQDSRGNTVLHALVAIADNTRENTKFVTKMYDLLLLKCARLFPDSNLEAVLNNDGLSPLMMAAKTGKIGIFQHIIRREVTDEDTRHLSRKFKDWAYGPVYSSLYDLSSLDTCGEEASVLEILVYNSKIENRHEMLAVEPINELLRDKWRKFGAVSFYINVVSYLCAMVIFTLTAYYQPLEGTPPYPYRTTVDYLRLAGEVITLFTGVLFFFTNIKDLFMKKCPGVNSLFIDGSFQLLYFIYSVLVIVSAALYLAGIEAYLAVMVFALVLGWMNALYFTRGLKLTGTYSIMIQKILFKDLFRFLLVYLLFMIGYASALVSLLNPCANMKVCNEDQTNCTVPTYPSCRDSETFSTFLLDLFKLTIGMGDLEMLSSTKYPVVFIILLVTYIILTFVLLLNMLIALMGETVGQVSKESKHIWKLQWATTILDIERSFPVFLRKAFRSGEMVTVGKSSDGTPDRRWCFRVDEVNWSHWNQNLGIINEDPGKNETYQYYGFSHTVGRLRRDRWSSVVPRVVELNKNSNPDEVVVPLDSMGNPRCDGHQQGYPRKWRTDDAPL

On to `Cc1oc2c(c1CC(=O)Nc1nc(-c3cc(Cl)c(OCC(C)C)c(Cl)c3)cs1)c(=O)n(C)c(=O)n2C` [Compound 75], for which the concentration for half-maximal inhibition (IC50) on human TRPA1 is 3.34 nM; on human TRPV1, greater than 10000 nM; on human TRPV3, greater than 10000 nM; on human TRPV4, greater than 10000 nM; on human TRPM8, greater than 10000 nM.
As for `Cc1oc2c(c1CC(=O)Nc1nc(-c3ccc(C(F)(F)F)c(F)c3F)cs1)c(=O)n(C)c(=O)n2C` [Compound 76], the concentration for half-maximal inhibition (IC50) is 4.02 nM on human TRPA1; 8010 nM on human TRPV1; 2500 nM at human TRPV3; 8920 nM at human TRPV4; greater than 10000 nM on human TRPM8.
Turning to `Cn1c(=O)c2c(CC(=O)Nc3nc(-c4ccc(F)c(C(F)(F)F)c4F)cs3)nsc2n(C)c1=O` [Compound 77], the IC50 on human TRPA1 was 5.6 nM; on human TRPV1, greater than 10000 nM; on human TRPV3, 1770 nM; on human TRPV4, 553 nM; on human TRPM8 it was greater than 10000 nM.
Consider `Cn1c(=O)c2c(CC(=O)Nc3nc(-c4ccc(C(F)(F)F)cc4F)cs3)nsc2n(C)c1=O` [Compound 78], for which the IC50 at human TRPA1 was 10.6 nM; on human TRPV1, greater than 10000 nM; on human TRPV3, greater than 1000 nM; at human TRPV4, 153 nM; on human TRPM8, greater than 10000 nM.
Regarding `Cn1c(=O)c2c(CC(=O)Nc3nc(-c4cccc(C(F)(F)F)c4F)cs3)nsc2n(C)c1=O` [Compound 79], the IC50 on human TRPA1 is 5.29 nM; at human TRPV1 it was greater than 10000 nM; on human TRPV3, greater than 1000 nM; at human TRPV4 it was 826 nM; at human TRPM8, greater than 10000 nM.
As to `Cn1c(=O)c2c(CC(=O)Nc3nc(-c4ccc(OC(F)(F)F)c(Cl)c4)cs3)nsc2n(C)c1=O` [Compound 80], the IC50 on human TRPA1 is 6.28 nM; on human TRPV1, greater than 10000 nM; at human TRPV3, greater than 10000 nM; at human TRPV4, 279 nM; on human TRPM8, greater than 10000 nM.
As to `Cn1c(=O)c2c(CC(=O)Nc3nc(-c4ccc(C(F)(F)F)c(F)c4)cs3)nsc2n(C)c1=O` [Compound 81], the IC50 at human TRPA1 was 6.74 nM; at human TRPV1, greater than 10000 nM; at human TRPV3, greater than 1000 nM; on human TRPV4 it was 162 nM; on human TRPM8, greater than 10000 nM.
For `Cn1c(=O)c2c(CC(=O)Nc3nc(-c4ccc(OC(F)(F)F)c(F)c4)cs3)nsc2n(C)c1=O` [Compound 82], the IC50 on human TRPA1 was 8.04 nM; on human TRPV1, greater than 10000 nM; at human TRPV3 it was greater than 1000 nM; on human TRPV4, 172 nM; at human TRPM8, greater than 10000 nM.
As to `Cn1c(=O)c2c(CC(=O)Nc3nc(-c4cc(F)cc(C(F)(F)F)c4)cs3)nsc2n(C)c1=O` [Compound 83], the IC50 at human TRPA1 is 4.4 nM; at human TRPV1, greater than 10000 nM; at human TRPV3, greater than 1000 nM; on human TRPV4 it was 236 nM; at human TRPM8, greater than 10000 nM.
With `Cn1c(=O)c2c(CC(=O)Nc3nc(-c4ccc(C(F)(F)F)c(F)c4)cs3)ccnc2n(C)c1=O` [Compound 85], the IC50 is 8.92 nM on human TRPA1; greater than 10000 nM on human TRPV1; greater than 1000 nM on human TRPV3; 620 nM at human TRPV4; greater than 10000 nM at human TRPM8.
In the case of `Cn1c(=O)c2c(CC(=O)Nc3nc(-c4cc(F)c(OCC(F)(F)F)c(F)c4)cs3)ccnc2n(C)c1=O` [Compound 86], the IC50 on human TRPA1 was 6.91 nM; at human TRPV1, greater than 10000 nM; on human TRPV3, greater than 10000 nM; at human TRPV4, greater than 1000 nM; on human TRPM8, greater than 10000 nM.
Consider `Cn1c(=O)c2c(CC(=O)Nc3nc(-c4ccc(F)c(C(F)(F)F)c4F)cs3)ccnc2n(C)c1=O` [Compound 87], for which the IC50 was 19.3 nM on human TRPA1; greater than 10000 nM at human TRPV1; greater than 10000 nM at human TRPV3; 2010 nM at human TRPV4; greater than 10000 nM on human TRPM8.
For `Cn1c(=O)c2c(CC(=O)Nc3nc(-c4ccc(OC(F)(F)F)c(F)c4)cs3)ccnc2n(C)c1=O` [Compound 88], the IC50 was 11.4 nM at human TRPA1; greater than 10000 nM on human TRPV1; greater than 1000 nM on human TRPV3; 158 nM at human TRPV4; greater than 10000 nM at human TRPM8.
